Patent US20080293818A1, “Regulator of Physiological Function of Ghrelin and Use Thereof” (priority 2004, published 2008)
Marks after values point to notes of the source that are not given here.

Legend:
Assay type in all cases: in vivo, mouse
[1] = tested on: des-acyl and acyl-modified ghrelin peptides in the stomach; experiment: Molecular forms of stomach ghrelin peptide after ingestion (HPLC fractionation, C-RIA); settings: mice; for stomach ghrelin modified by the acyl group corresponding to the ingested lipid: HPLC peak; for C6:0-ghrelin (n-hexanoyl ghrelin) concentration in the stomach / C8:0-ghrelin (n-octanoyl ghrelin) concentration in the stomach / C10:0-ghrelin (n-decanoyl ghrelin) concentration in the stomach / Des-acyl ghrelin concentration in the stomach / C10:1-ghrelin (n-decenoyl ghrelin) concentration in the stomach: 5% (w/w) in chow, 14 days, from 0.2 mg wet weight, C-RIA after HPLC, mean ± S.D.; for C10:1-ghrelin (n-decenoyl ghrelin) concentration in the stomach: fraction holds unidentified ghrelin molecules too
Description: (§1) Male C57BL/6J mice weighing 20-25 g (10-12 week old) were maintained under controlled temperature (21-23° C.) and light conditions (light on 0700-1900) with ad libitum access to food and water. Medium-chain fatty acids (MCFAs), i.e., n-hexanoic, n-octanoic, and n-lauric acids (Sigma-Aldrich Japan Co., Ltd., Tokyo), were dissolved in water at 5 mg/ml. n-Palmitic acid, a common long-chain fatty acid (LCFA) (Sigma-Aldrich Japan Co., Ltd., Tokyo), was mixed into standard laboratory chow (CLEA Rodent Diet CE-2, CLEA Japan, Osaka) at a concentration of 1% (w/w), to equilibrate the total intake amount of this lipid to the other medium-chain fatty acids contained in the food. Medium- and long-chain triglycerides (MCTs and LCTs), i.e., glyceryl trihexanoate, trioctanoate, tridecanoate and tripalmitates (Wako Pure Chemical, Osaka, Japan), were mixed with standard laboratory chow at a concentration of 5% (w/w). Whole stomach tissues from treated mice were collected at the indicated times (0-14 days) after ingesting the free fatty acid- or triacylglyceride-containing food. Fresh tissue samples from these mice were diced and boiled for 5 minutes in a 10-fold volume of water. The tissue-containing solution was then adjusted to 1M acetic acid after cooling and then homogenized with a Polytron mixer. The supernatant, obtained after centrifugation at 15,000 rpm for 15 minutes, was then lyophilized. The lyophilized material was dissolved in RIA buffer and subjected to ghrelin C- and N-RIA. To elucidate the forms of ghrelin peptides modified by different acyl groups, extracted stomach peptides were collected using a Sep-Pak Plus C18 cartridge (Waters, Milford, Mass.) and subjected to C18 RP-HPLC (Symmetry 300, 3.9×150 mm, Waters) with a linear gradient from 10 to 60% CH3CN/0.1% TFA at a flow rate of 1.0 ml/minute for 40 minutes. Five hundred micro-litter fractions were collected. Ghrelin peptide content in each fraction was measured by ghrelin C- and N-RIA as described above. Degradation of ghrelin was not observed during the extraction.
To clarify what molecular forms of ghrelin peptide are present after the ingestion of triacylglycerol (triacylglycerin), peptide extracts from stomachs of mouse fed chow containing glyceryl trihexanoate (C6:0-MCT), glyceryl trioctanoate (C8:0-MCT), glyceryl tridecanoate (C10:0-MCT), and standard laboratory chow (Control) were fractionated by HPLC, and measured for ghrelin immunoreactivity by C-RIA. […] Based on the observed retention times of synthetic acyl-modified ghrelin peptides, peaks a, d, h, and k corresponded to des-acyl ghrelin, peaks b, f, i, and 1 corresponded to n-octanoyl (C8:0) ghrelin, and peaks c, g, j, and m corresponded to n-decenoyl (10:1) ghrelin.
Male C57BL/6J mice were fed chow mixed with 5% (w/w) glyceryl trihexanoate (C6:0-MCT), glyceryl trioctanoate (C8:0-MCT), or glyceryl tri-decanoate (C10:0-MCT) for 14 days. The concentrations of des-acyl ghrelin, n-hexanoyl ghrelin (C6:0-ghrelin), n-octanoyl ghrelin (C8:0-ghrelin), n-decenoyl ghrelin (C10:1-ghrelin), and n-decanoyl ghrelin (C10:0-ghrelin) from stomach samples (from 0.2 mg wet weight) were measured by ghrelin C-RIA after HPLC fractionation.

[2] = tested on: acyl-modified and total ghrelin in the stomach; experiment: Stomach ghrelin content after medium- to long-chain triacylglycerol ingestion (N-RIA / C-RIA); settings: mice, 5% (w/w) in chow, two weeks; for production of acyl-modified ghrelin in stomach tissue: N-RIA
Description: (§2) RIAs specific for ghrelin were performed as previously described [D2]. Two polyclonal antibodies were raised in rabbits against the N-terminal (Gly^1-Lys^11 with O-n-octanoylation at Ser^3) and C-terminal (Gln^13-Arg^28) fragments of rat ghrelin. RIA incubation mixtures were composed of 100 μl of either standard ghrelin or an unknown sample, with 200 μl of antiserum diluted in RIA buffer (50 mM sodium phosphate buffer (pH 7.4), 0.5% BSA, 0.5% Triton-X100, 80 mM sodium chloride (NaCl), 25 mM disodium ethylenediamine-tetraacetate (EDTA 2-Na) and 0.05% sodium azide (NaN3)) containing 0.5% normal rabbit serum. Anti-rat ghrelin [D1-D11] and anti-rat ghrelin [D13-D28] antisera were used at final dilutions of 1/3,000,000 and 1/20,000, respectively. After a 12-hour incubation at 4° C., 100 μl of ^125I-labeled ligand (20,000 cpm) was added for an additional 36-hour incubation. Then, 100 μl of anti-rabbit goat antibody was added. After incubation for 24 hours at 4° C., free and bound tracers were separated by centrifugation at 3,000 rpm for 30 min. Pellet radioactivity was quantified in a gamma counter (ARC-600, Aloka, Tokyo). All assays were performed in duplicate at 4° C.
as §1
Orally ingested triacylglycerols are intraluminally hydrolyzed and absorbed through the gastro-intestinal mucosa as free fatty acids or monoglycerides. Thus, ingested triacylglycerols may serve as a source of free fatty acids [D26]. To examine if ingested triacylglycerols are used for acyl-modification of ghrelin, mice were fed chow mixed with 5% (w/w) glyceryl trihexanoate (C6), trioctanoate (C8), tridecanoate (C10), and tripalmintate (C16). After two weeks, gastric peptides were extracted. Ghrelin concentration in the stomach of these mice and in that from mice fed standard laboratory chow (Control) (n=8) are shown. The content of acyl-modified and total ghrelins was measured by N- and C-RIA. […]

[3] = tested on: acyl-modified and total ghrelin in the stomach; experiment: Stomach ghrelin content after free fatty acid ingestion (N-RIA / C-RIA); settings: mice, 14 days; for total ghrelin concentration in the stomach vs control: C-RIA
Description: as §2
Stomachs collected from either mice or rats were washed two times in phosphate buffered physiological saline (pH 7.4). After measuring the wet weight of each sample, the whole stomach tissue was diced and boiled for 5 minutes in a 10-fold volume of water to inactivate intrinsic proteases. After cooling on ice, boiled samples were adjusted to 1 M acetic acid-20 mM hydrochloric acid (HCl). Peptides were extracted following homogenization with a Polytron mixer (PT 6100, Kinematica AG, Littan-Luzern, Switzerland). Extract supernatants, isolated following 15-minute-centrifugation at 15,000 rpm (12,000×g), were lyophilized and stored at −80° C. The lyophilized samples were redissolved in either RIA buffer or calcium mobilization assay buffer prior to ghrelin RIA or calcium mobilization assay, respectively.
as §1, with “Degradation of ghrelin was not observed during the extraction.” left out

[4] = tested on: n-heptanoyl ghrelin in the stomach; experiment: Molecular forms of stomach ghrelin after glyceryl triheptanoate ingestion (HPLC, C-RIA and N-RIA); settings: mice, HPLC, C-RIA / N-RIA
Description: as §1
Male C57BL/6J mice weighing 20-25 g (10-12 week old) were maintained under controlled temperature (21-23° C.) and light conditions (light on 0700-1900) with ad libitum access to food and water. Glyceryl triheptanoate (Fluka Chemie GmbH, Buchs, Switzerland) was mixed with standard laboratory chow at a concentration of 5% (w/w). Four days after mice were fed glyceryl triheptanoate-containing food, stomachs (total 1,000 mg) were recovered from mice (n=7). The total consumption of glyceryl triheptanoate-containing food was approximately 13.5 g/mouse, amounting to 675 mg total glyceryl triheptanoate ingested by each mouse. Stomachs were minced and boiled for 5 minutes in 5× volumes of water to inactivate intrinsic proteases. […]

Compound	stomach ghrelin modified by the acyl group corresponding to the ingested lipid ([1]; C-RIA)	production of acyl-modified ghrelin in stomach tissue [2]	total ghrelin concentration in the stomach vs control [3]	gastric concentration of acyl-modified ghrelin vs control ([3]; N-RIA)	other results
CCCC(=O)OCC(COC(=O)CCC)OC(=O)CCC [glyceryl tributyrate]	not observed				
CCCCCCCCCCCCC(=O)OCC(O)CO (centres unmarked) [glyceryl tridecanoate]	increased	no effect			molar ratio of acyl-modified ghrelin/total ghrelin [2]: increased; C6:0-ghrelin (n-hexanoyl ghrelin) concentration in the stomach [1]: 22.1 ± 6.1; C8:0-ghrelin (n-octanoyl ghrelin) concentration in the stomach [1]: 460.0 ± 70.6; C10:0-ghrelin (n-decanoyl ghrelin) concentration in the stomach [1]: 95.1 ± 9.7^a); Des-acyl ghrelin concentration in the stomach [1]: 181.4 ± 31.5^c); C10:1-ghrelin (n-decenoyl ghrelin) concentration in the stomach [1]: 64.5 ± 14.2^b)
CCCCCC(=O)OCC(COC(=O)CCCCC)OC(=O)CCCCC [glyceryl trihexanoate]	increased drastically	slightly suppressed			molar ratio of acyl-modified ghrelin/total ghrelin [2]: decreased significantly; C6:0-ghrelin (n-hexanoyl ghrelin) concentration in the stomach [1]: 237.3 ± 35.0^a); C8:0-ghrelin (n-octanoyl ghrelin) concentration in the stomach [1]: 358.0 ± 33.0^b); C10:0-ghrelin (n-decanoyl ghrelin) concentration in the stomach [1]: 14.1 ± 5.2; Des-acyl ghrelin concentration in the stomach [1]: 245.0 ± 11.0; C10:1-ghrelin (n-decenoyl ghrelin) concentration in the stomach [1]: 133.5 ± 12.1^b); n-octanoyl ghrelin concentration in the stomach vs control ([1]; HPLC peak f, C-RIA): significant decreases
CCCCCCCCCCCCCCCC(=O)OCC(COC(=O)CCCCCCCCCCCCCCC)OC(=O)CCCCCCCCCCCCCCC [glyceryl tripalmitate]	not observed	no effect			
CCCCCCCCCC(=O)O [n-decanoic acid]	increased		No significant changes	No significant changes	
CCCCCCC(=O)O [n-heptanoic acid]					appearance of peak b / d (n-heptanoyl ghrelin) immunoreactivity in stomach extracts [4]: also detected
CCCCCC(=O)O [n-hexanoic acid]	increased		No significant changes	No significant changes	
CCCCCCCC(=O)O [n-octanoic acid]	increased		No significant changes	increased significantly	ratio of n-octanoyl ghrelin/total ghrelin [3]: increased; mean concentration of acyl-modified ghrelin in the stomach ([3]; N-RIA, n=8, control 1,795): 2,455 fmol/mg wet weight
CCCCCCCCCCCC(=O)OCC(COC(=O)CCCCCCCCCCC)OC(=O)CCCCCCCCCCC [trilaurate]	not observed				
n-palmitic acid			No significant changes	No significant changes	
